Results from patent publication US4317768A, “Dihydropyridine derivatives as stabilizers for vinyl chloride polymers” (priority 1977, dated 1982).

Legend:
[1] = Photostabilizing power, tetrahydrofuran solution of plates exposed to the sun, French Pharmacopeia
Description: The photostabilizing power of the compounds of the invention was studied by exposing to the sun polyvinyl chloride plates which had been stabilized either by a dihydropyridine of the invention or by 2-phenyl-indole, or again by 2-(3'-methoxy-4'-hydroxy)-indole. This last product is an extremely valuable thermostabilizer for thermoplastic resins and is described in British Pat. No. 1,489,685.
The resin given hereunder was prepared by mixing on cylinders at 160° C.:
The plates of stabilized polyvinyl chloride, together with a plate which had not been stabilized, were stood in the sun under the same conditions and at the same time. Their colour was measured after 6 hours and 12 hours of exposure.
The coloration of the plates was determined according to two methods:
On a solution of these plates in tetrahydrofuran, the coloration of th solution being measured according to the French Pharmacopeia (IXth edition, II-338).

[2] = Antioxidant power on a polyvinyl chloride resin, GARDNER method, 185° C.
Description: By direct comparison, on a polyvinyl chloride resin, of the antioxidant power of Compound 1 of the invention and that of an antioxidant known as one of the most valuable and frequently used in polyvinyl chloride, namely 2,6-diterbutyl-4-methyl-phenol.
The antioxidant power of Compound 1 was compared to that of 2,6-diterbutyl-4-methyl-phenol (Compound 2) by using the following resin:
The study was carried out according to the GARDNER method, the samples being removed from an oven at 185° C. every 10 minutes over a period of 80 minutes.
The signs + and - have the same meanings as in the previous table and > 2 means that the coloration lies between 2 and 2+.

## CC1=C(C(=O)OCc2ccccc2)CC(C(=O)OCc2ccccc2)=C(C)N1 [Compound 21, 2,6-Dimethyl-3,5-dicarbobenzyloxy-1,4-dihydropyridine]
[1]; exposure to sun 0
  Coloration of the plates FRENCH PHARMACOPEIA: JV6
[1]; exposure to sun 6h
  Coloration of the plates FRENCH PHARMACOPEIA: JV6
[1]; exposure to sun 12h
  Coloration of the plates FRENCH PHARMACOPEIA: JV5

## C=CCOC(=O)C1=C(C)NC(C)=C(C(=O)OCC=C)C1 [Compound 1, 2,6-Dimethyl-3,5-dicarboallyloxy-1,4-dihydropyridine]
[2]; 0.05 part, 0 min
  coloration, GARDNER scale: 1
[2]; 0.05 part, 10 min
  coloration, GARDNER scale: 1
[2]; 0.05 part, 60 min
  coloration, GARDNER scale: 7
[2]; 0.05 part, 70 min
  coloration, GARDNER scale: 8
[2]; 0.1 part, 0 min
  coloration, GARDNER scale: 1
[2]; 0.1 part, 10 min
  coloration, GARDNER scale: 1
[2]; 0.1 part, 30 min
  coloration, GARDNER scale: < 2
[2]; 0.1 part, 60 min
  coloration, GARDNER scale: 7
[2]; 0.1 part, 70 min
  coloration, GARDNER scale: 7
[2]; 0.2 part, 0 min
  coloration, GARDNER scale: 1
[2]; 0.2 part, 10 min
  coloration, GARDNER scale: 1
[2]; 0.2 part, 20 min
  coloration, GARDNER scale: 1
[2]; 0.2 part, 40 min
  coloration, GARDNER scale: 2
[2]; 0.2 part, 50 min
  coloration, GARDNER scale: 3
[2]; 0.2 part, 60 min
  coloration, GARDNER scale: 5
[2]; 0.2 part, 70 min
  coloration, GARDNER scale: > 6
[2]; 0.3 part, 0 min
  coloration, GARDNER scale: 1
[2]; 0.3 part, 10 min
  coloration, GARDNER scale: 1
[2]; 0.3 part, 20 min
  coloration, GARDNER scale: 1
[2]; 0.3 part, 30 min
  coloration, GARDNER scale: 1
[2]; 0.3 part, 40 min
  coloration, GARDNER scale: 2
[2]; 0.3 part, 50 min
  coloration, GARDNER scale: > 2
[2]; 0.3 part, 60 min
  coloration, GARDNER scale: 8
[2]; 0.3 part, 70 min
  coloration, GARDNER scale: 8
[2]; 0.4 part, 0 min
  coloration, GARDNER scale: 1
[2]; 0.4 part, 10 min
  coloration, GARDNER scale: 1
[2]; 0.4 part, 20 min
  coloration, GARDNER scale: 1
[2]; 0.4 part, 30 min
  coloration, GARDNER scale: 1
[2]; 0.4 part, 60 min
  coloration, GARDNER scale: 4
[2]; 0.4 part, 70 min
  coloration, GARDNER scale: 8
[2]; 0.5 part, 0 min
  coloration, GARDNER scale: 1
[2]; 0.5 part, 10 min
  coloration, GARDNER scale: 1
[2]; 0.5 part, 20 min
  coloration, GARDNER scale: 1
[2]; 0.5 part, 30 min
  coloration, GARDNER scale: > 1
[2]; 1.0 part, 0 min
  coloration, GARDNER scale: 1
[2]; 1.0 part, 10 min
  coloration, GARDNER scale: 1
[2]; 1.0 part, 20 min
  coloration, GARDNER scale: 1
[2]; 1.0 part, 30 min
  coloration, GARDNER scale: 1
[2]; 1.0 part, 50 min
  coloration, GARDNER scale: 4
[2]; 1.0 part, 60 min
  coloration, GARDNER scale: 8
